Measurements: patent US20200079765A1, “SUBSTITUTED HETEROARYL PYRROLONES AND SALTS THEREOF AND USE THEREOF AS HERBICIDAL ACTIVE SUBSTANCES” (Bayer CropScience Aktiengesellschaft, priority 2016, published 2020)

Tests used:
photosystem II (PS II) = target: T1, photosystem II (PS II) (Spinacia oleracea, UniProt P69560); assay: Measurement of the PS II activity in thylakoid membranes (DCPIP reduction, Experimental Part 3, Table E1); type: biochemical; conditions: spinach thylakoid membranes
T1 construct: the chloroplasts were osmotically ruptured and the thylakoid membranes were then obtained by centrifugation; from tissue; host or cells: thylakoid membranes from fresh spinach leaves
Experimental: Cooled fresh spinach leaves were comminuted and homogenized in 50 mM phosphate buffer, pH 6.8. 10 mM KCl, 0.34 M sucrose (sucrose buffer) (blender, 1 g of plant material/ml). The homogenate was subsequently filtered through 4 layers of Miracloth and the chloroplasts were isolated by centrifugation, i.e. 10 min of centrifugation at 4400×g (4° C.). The sediment was suspended in 25 ml of sucrose buffer and re-centrifuged for 10 min at 4400×g (4° C.). The sediment was then suspended in 40 ml of 50 mM phosphate buffer, pH 6.8, 10 mM KCl, without sucrose. In this step, the chloroplasts were osmotically ruptured and the thylakoid membranes were then obtained by centrifugation (10 min, 4400×g, 4° C.). The membrane sediment was finally suspended in about 20 ml of 50 mM phosphate buffer, pH 6.8, 10 mM KCl. Following protein determination and activity determination, the membrane suspension was divided into aliquots and frozen in liquid nitrogen. The aliquots were stored at −80° C. Under these conditions, the photosystem II preparation was storage stable for at least three months. The activity determination of photosystem II (PS II) was then carried out using the following test principle: The electron transfer from PS II to an artificial electron acceptor, 2,6-dichlorophenolindophenol (DCPIP), was measured with exposure to light. The concentration of the blue oxidized form of DCPIP was determined spectrophotometrically at wavelength λ=595 nm. […] The activity determination was carried out in microtiter plates (96 cavities) in a reaction volume of 200 μl. Here, 155 μl of dilute membrane suspension were initially charged in 50 mM of phosphate buffer, pH 6.8, 10 mM KCl. Depending on the activity of the PS II preparation, the dilution was adjusted such that the measurement of the decrease in absorption (λ=595 nm) was linear for at least 10 min. In each case 5 μl solution of the test compounds of a concentration of 100 μM in DMSO were added to the enzyme suspension; controls contained 5 μl DMSO; the final concentration of DMSO in the reaction batch was thus 2.5% (v/v); this concentration had no adverse effect on the enzymatic activity. On each microtiter plate, a known PS II inhibitor, for example metribuzin, was used as standard, which allowed the quality of the PS II test to be assessed. The reaction was started by addition of 40 μl DCPIP solution (600 μM in distilled water); the final concentration of DCPIP was 120 μM. Measurement of absorption was carried out over a period of 10 min at 22° C. and with exposure to light. Using metribuzin as comparative substance, the results for the efficacy of the compounds of the general formula (I) at 100 μM are stated in the table below using the following classification: ++++ (inhibition≥90%), +++ (90%>inhibition≥70%), ++ (70%>inhibition≥50%), + (50%>inhibition≥30%).
Effects of selected compounds of the general formula (I) according to the following table E1: […]

Abutilon theophrasti [1] = assay: Herbicidal pre-emergence action (Experimental Part 2, D); type: in vivo; conditions: pre-emergence (Part 2), scored visually after about 3 weeks
Description: (§1) Seeds of mono- and dicotyledonous weed plants were placed in plastic pots in sandy loam soil (doubly sown with in each case one species of mono- or dicotyledonous weed plants per pot) and covered with soil. The compounds of the invention, formulated in the form of wettable powders (WP) or as emulsion concentrates (EC), were then applied onto the surface of the covering soil as aqueous suspension or emulsion with addition of 0.5% additive at a water application rate of 600 liters per hectare (converted). After the treatment, the pots are placed in a greenhouse and kept under good growth conditions for the trial plants. After about 3 weeks, the effect of the preparations was scored visually in comparison with untreated controls as percentages. For example, 100% activity=the plants have died, 0% activity=like control plants. Tables D1 to D8 below show the effects of selected compounds of the general formula (I) according to Tables I.1 to I.116 on various harmful plants and an application rate corresponding to 1280 g/ha or 320 g/ha, which were obtained by the experimental procedure mentioned above.

Setaria viridis [2] = assay: as above; type: in vivo; conditions: pre-emergence (Part 2), scored visually after about 3 weeks
Description: as §1

Poa annua [3] = assay: as above; type: in vivo; conditions: pre-emergence (Part 2), scored visually after about 3 weeks
Description: as §1

Matricaria inodora [4] = assay: as above; type: in vivo; conditions: pre-emergence (Part 2), scored visually after about 3 weeks
Description: as §1

Amaranthus retroflexus [5] = assay: as above; type: in vivo; conditions: pre-emergence (Part 2), scored visually after about 3 weeks
Description: as §1

Stellaria media [6] = assay: as above; type: in vivo; conditions: pre-emergence (Part 2), scored visually after about 3 weeks
Description: as §1

Abutilon theophrasti [7] = assay: Herbicidal post-emergence action (Experimental Part 2, C); type: in vivo; conditions: post-emergence (Part 2), rated visually after about 3 weeks
Experimental: (§2) Seeds of mono- and dicotyledonous weed plants were placed in plastic pots in sandy loam soil (doubly sown with in each case one species of mono- or dicotyledonous weed plants per pot), covered with soil and cultivated in a greenhouse under controlled growth conditions. 2 to 3 weeks after sowing, the test plants were treated at the one-leaf stage. The compounds of the invention, formulated in the form of wettable powders (WP) or as emulsion concentrates (EC), were applied onto the green parts of the plants as aqueous suspension or emulsion with addition of 0.5% additive at a water application rate of 600 liters per hectare (converted). After the test plants had been kept in the greenhouse under optimum growth conditions for about 3 weeks, the activity of the preparations was rated visually in comparison to untreated controls. For example, 100% activity=the plants have died, 0% activity=like control plants. Tables C1 to C8 below show the effects of selected compounds of the general formula (I) according to Tables I.1 to I.116 on various harmful plants and an application rate corresponding to 1280 g/ha or 320 g/ha, which were obtained by the experimental procedure mentioned above.

Setaria viridis [8] = assay: as above; type: in vivo; conditions: post-emergence (Part 2), application rate 1280 g/ha, rated visually after about 3 weeks
Experimental: as §2

Amaranthus retroflexus [9] = assay: as above; type: in vivo; conditions: post-emergence (Part 2), rated visually after about 3 weeks
Experimental: as §2

Stellaria media [10] = assay: as above; type: in vivo; conditions: post-emergence (Part 2), rated visually after about 3 weeks
Experimental: as §2

Amaranthus retroflexus [11] = assay: Pre-emergence herbicidal action (Experimental Part 1, B); type: in vivo; conditions: application rate 1280 g/ha, scored visually after about 3 weeks
Description: Seeds of monocotyledonous and dicotyledonous weed plants and crop plants were placed in plastic or organic planting pots and covered with soil. The compounds of the invention, formulated in the form of wettable powders (WP) or as emulsion concentrates (EC), were then applied onto the surface of the covering soil as aqueous suspension or emulsion with addition of 0.5% additive at a water application rate of 600 l/ha (converted). After the treatment, the pots were placed in a greenhouse and kept under good growth conditions for the test plants. After about 3 weeks, the effect of the preparations was scored visually in comparison with untreated controls as percentages. For example, 100% activity=the plants have died, 0% activity=like control plants. Tables B1 to B14 below show the effects of selected compounds of the general formula (I) according to Tables I.1 to I.116 on various harmful plants and an application rate corresponding to 1280 g/ha or 320 g/ha, which were obtained by the experimental procedure mentioned above.

Poa annua [12] = assay: Herbicidal post-emergence action (Experimental Part 2, C); type: in vivo; conditions: post-emergence (Part 2), rated visually after about 3 weeks
Experimental: as §2

Matricaria inodora [13] = assay: as above; type: in vivo; conditions: post-emergence (Part 2), rated visually after about 3 weeks
Experimental: as §2

Lolium rigidum = assay: Herbicidal pre-emergence action (Experimental Part 2, D); type: in vivo; conditions: pre-emergence (Part 2), application rate 1280 g/ha, scored visually after about 3 weeks
Description: as §1

CC1=CC(=O)N(c2cc(CC(C)C)no2)C1O (centres unmarked) [I.1-697]
++++ (inhibition≥90%): Effect (inhibition of PS II activity) (photosystem II (PS II))

CC1=CC(O)N(c2cc(C)ns2)C1=O (centres unmarked) [I.2-72]
++ (70%>inhibition≥50%): Effect (inhibition of PS II activity) (photosystem II (PS II))

CC1=CC(O)N(c2cc(-c3ccccc3)ns2)C1=O (centres unmarked) [I.2-86]
++++ (inhibition≥90%): Effect (inhibition of PS II activity) (photosystem II (PS II))

CC1=CC(O)N(c2onc(C(C)(C)C)c2C)C1=O (centres unmarked) [I.2-300]
100%: Amaranthus retroflexus, herbicidal activity (Amaranthus retroflexus [5]; application rate 320 g/ha) | Abutilon theophrasti, herbicidal activity (Abutilon theophrasti [7]; application rate 1280 g/ha) | Amaranthus retroflexus, herbicidal activity (Amaranthus retroflexus [9]; application rate 320 g/ha) | Stellaria media, herbicidal activity (Stellaria media [10]; application rate 1280 g/ha)
90%: Abutilon theophrasti, herbicidal activity (Abutilon theophrasti [1]; application rate 320 g/ha) | Setaria viridis, herbicidal activity (Setaria viridis [2]; application rate 320 g/ha) | Poa Annua, herbicidal activity (Poa annua [3]; application rate 1280 g/ha) | Matricaria inodora, herbicidal activity (Matricaria inodora [4]; application rate 1280 g/ha) | Stellaria media, herbicidal activity (Stellaria media [6]; application rate 320 g/ha) | Setaria viridis, herbicidal activity (Setaria viridis [8])
++++ (inhibition≥90%): Effect (inhibition of PS II activity) (photosystem II (PS II))

CC(=O)OC1C(C)=CC(=O)N1c1cc(C(C)(C)C)no1 (centres unmarked) [I.3-290]
100%: Abutilon theophrasti, herbicidal activity (Abutilon theophrasti [1]; application rate 1280 g/ha) | Matricaria inodora, herbicidal activity (Matricaria inodora [4]; application rate 1280 g/ha) | Stellaria media, herbicidal activity (Stellaria media [6]; application rate 1280 g/ha) | Abutilon theophrasti, herbicidal activity (Abutilon theophrasti [7]; application rate 1280 g/ha) | Poa Annua, herbicidal activity (Poa annua [12]; application rate 1280 g/ha)
90%: Setaria viridis, herbicidal activity (Setaria viridis [2]; application rate 1280 g/ha) | Poa Annua, herbicidal activity (Poa annua [3]; application rate 1280 g/ha) | Amaranthus retroflexus, herbicidal activity (Amaranthus retroflexus [5]; application rate 1280 g/ha) | Amaranthus retroflexus, herbicidal activity (Amaranthus retroflexus [11]) | Matricaria inodora, herbicidal activity (Matricaria inodora [13]; application rate 1280 g/ha)

CC(=O)OC1C(C)=CC(=O)N1c1cc(C(F)(F)F)c(Cl)cn1 (centres unmarked) [I.3-451]
100%: Setaria viridis, herbicidal activity (Setaria viridis [2]; application rate 1280 g/ha) | Stellaria media, herbicidal activity (Stellaria media [6]; application rate 320 g/ha) | Abutilon theophrasti, herbicidal activity (Abutilon theophrasti [7]; application rate 320 g/ha) | Poa Annua, herbicidal activity (Poa annua [12]; application rate 320 g/ha) | Amaranthus retroflexus, herbicidal activity (Amaranthus retroflexus [9]; application rate 1280 g/ha) | Stellaria media, herbicidal activity (Stellaria media [10]; application rate 320 g/ha)
+++ (90%>inhibition≥70%): Effect (inhibition of PS II activity) (photosystem II (PS II))
90%: Lolium rigidum, herbicidal activity (Lolium rigidum) | Poa Annua, herbicidal activity (Poa annua [3]; application rate 320 g/ha) | Matricaria inodora, herbicidal activity (Matricaria inodora [13]; application rate 320 g/ha)

CCC(=O)OC1C(C)=CC(=O)N1c1cc(C(C)(C)C)no1 (centres unmarked) [I.5-290]
90%: Setaria viridis, herbicidal activity (Setaria viridis [2]; application rate 1280 g/ha) | Lolium rigidum, herbicidal activity (Lolium rigidum) | Poa Annua, herbicidal activity (Poa annua [3]; application rate 320 g/ha)
100%: Abutilon theophrasti, herbicidal activity (Abutilon theophrasti [1]; application rate 1280 g/ha) | Matricaria inodora, herbicidal activity (Matricaria inodora [4]; application rate 320 g/ha) | Stellaria media, herbicidal activity (Stellaria media [6]; application rate 320 g/ha) | Abutilon theophrasti, herbicidal activity (Abutilon theophrasti [7]; application rate 1280 g/ha) | Matricaria inodora, herbicidal activity (Matricaria inodora [13]; application rate 1280 g/ha) | Stellaria media, herbicidal activity (Stellaria media [10]; application rate 1280 g/ha)

CSc1nnc(C(C)(C)C)c(=O)n1N [metribuzin, reference compound]
++++ (inhibition≥90%): Effect (inhibition of PS II activity) (photosystem II (PS II))
